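Five concentrations, 48 hours, 96-well plates. GI50 = concentration required for 50% inhibition of growth. The concentration for full growth arrest is given as TGI.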
Columns and labels:
Test in all cases: inhibition of tumour cell growth, NCI panel, 48 h
EKVX NSCLC = tested on: EKVX NSCLC
HOP-92 NSCLC = tested on: HOP-92 NSCLC
HCT-116 colon = tested on: HCT-116 colon
SR leukemia = tested on: SR leukemia
SNB-19 CNS = tested on: SNB-19 CNS
ACHN renal = tested on: ACHN renal
SK-OV-3 ovarian = tested on: SK-OV-3 ovarian
UACC-62 melanoma = tested on: UACC-62 melanoma
SNB-75 CNS = tested on: SNB-75 CNS
OVCAR-4 ovarian = tested on: OVCAR-4 ovarian
CAKI-1 renal = tested on: CAKI-1 renal
SF-268 CNS = tested on: SF-268 CNS
NCI-H522 lung = tested on: NCI-H522 lung
MOLT-4 leukemia = tested on: MOLT-4 leukemia
NCI/ADR-RES ovarian = tested on: NCI/ADR-RES ovarian
UO-31 renal = tested on: UO-31 renal
BT-549 breast = tested on: BT-549 breast
SN12C renal = tested on: SN12C renal
PC-3 prostate = tested on: PC-3 prostate
T-47D breast = tested on: T-47D breast
SK-MEL-28 melanoma = tested on: SK-MEL-28 melanoma
TK-10 renal = tested on: TK-10 renal
IGROV1 ovarian = tested on: IGROV1 ovarian
OVCAR-8 ovarian = tested on: OVCAR-8 ovarian
HS 578T breast = tested on: HS 578T breast
NCI-H460 lung = tested on: NCI-H460 lung
MALME-3M melanoma = tested on: MALME-3M melanoma
786-0 renal = tested on: 786-0 renal
OVCAR-5 ovarian = tested on: OVCAR-5 ovarian
SF-295 CNS = tested on: SF-295 CNS
HL-60(TB) leukemia = tested on: HL-60(TB) leukemia
SK-MEL-2 melanoma = tested on: SK-MEL-2 melanoma
UACC-257 melanoma = tested on: UACC-257 melanoma
NCI-H23 lung = tested on: NCI-H23 lung
A498 renal = tested on: A498 renal
MDA-MB-231 breast = tested on: MDA-MB-231 breast
COLO 205 colon = tested on: COLO 205 colon
MCF7 breast = tested on: MCF7 breast
DU-145 prostate = tested on: DU-145 prostate
SF-539 CNS = tested on: SF-539 CNS
HOP-62 NSCLC = tested on: HOP-62 NSCLC
RXF 393 renal = tested on: RXF 393 renal
HT29 colon = tested on: HT29 colon
RPMI-8226 leukemia = tested on: RPMI-8226 leukemia
CCRF-CEM leukemia = tested on: CCRF-CEM leukemia
KM12 colon = tested on: KM12 colon
U251 CNS = tested on: U251 CNS
HCT-15 colon = tested on: HCT-15 colon
LOX IMVI melanoma = tested on: LOX IMVI melanoma
OVCAR-3 ovarian = tested on: OVCAR-3 ovarian
K-562 leukemia = tested on: K-562 leukemia
HCC-2998 colon = tested on: HCC-2998 colon
NCI-H226 lung = tested on: NCI-H226 lung
MDA-MB-435 = tested on: MDA-MB-435
M14 melanoma = tested on: M14 melanoma
SK-MEL-5 melanoma = tested on: SK-MEL-5 melanoma
A549 NSCLC = tested on: A549 NSCLC
SW-620 colon = tested on: SW-620 colon

## CCn1c(-c2nonc2N)nc2c(C#CC(C)(C)O)ncc(OC[C@@H]3CCCN3)c21
EKVX NSCLC
  GI50: 11.7 µM
  TGI: > 25 µM
HOP-92 NSCLC
  GI50: 14.5 µM
  TGI: > 25 µM
HCT-116 colon
  GI50: 5.34 µM
  TGI: 20.2 µM
SR leukemia
  GI50: 8.19 µM
  TGI: > 20.2 µM
SNB-19 CNS
  GI50: 4.28 µM
  TGI: > 25 µM
ACHN renal
  GI50: 8.76 µM
  TGI: > 25 µM
SK-OV-3 ovarian
  GI50: 0.968 µM
  TGI: > 19 µM
UACC-62 melanoma
  GI50: 7.2 µM
  TGI: > 25 µM
SNB-75 CNS
  GI50: 0.942 µM
  TGI: > 21.8 µM
OVCAR-4 ovarian
  GI50: 8.88 µM
  TGI: > 25 µM
CAKI-1 renal
  GI50: > 25 µM
  TGI: > 25 µM
SF-268 CNS
  GI50: 7.84 µM
  TGI: > 25 µM
NCI-H522 lung
  GI50: 3.1 µM
  TGI: 6.71 µM
MOLT-4 leukemia
  GI50: 3.01 µM
  TGI: > 25 µM
NCI/ADR-RES ovarian
  GI50: > 25 µM
  TGI: > 25 µM
UO-31 renal
  GI50: 13.4 µM
  TGI: > 25 µM
BT-549 breast
  GI50: 4.77 µM
  TGI: > 22.8 µM
SN12C renal
  GI50: 5.26 µM
  TGI: > 25 µM
PC-3 prostate
  GI50: 4.39 µM
  TGI: > 25 µM
T-47D breast
  GI50: 0.408 µM
  TGI: > 25 µM
SK-MEL-28 melanoma
  GI50: 12.1 µM
  TGI: > 25 µM
TK-10 renal
  GI50: 1.83 µM
  TGI: > 21.8 µM
IGROV1 ovarian
  GI50: 0.676 µM
  TGI: > 25 µM
OVCAR-8 ovarian
  GI50: 6.4 µM
  TGI: > 25 µM
HS 578T breast
  GI50: 1.72 µM
  TGI: > 19.5 µM
NCI-H460 lung
  GI50: 4.51 µM
  TGI: > 22.6 µM
MALME-3M melanoma
  GI50: > 15.3 µM
  TGI: > 25 µM
786-0 renal
  GI50: 2.45 µM
  TGI: > 25 µM
OVCAR-5 ovarian
  GI50: 10.6 µM
  TGI: > 25 µM
SF-295 CNS
  GI50: 3.07 µM
  TGI: > 25 µM
HL-60(TB) leukemia
  GI50: 5.63 µM
  TGI: 15 µM
SK-MEL-2 melanoma
  GI50: 4.56 µM
  TGI: 15 µM
UACC-257 melanoma
  GI50: > 25 µM
  TGI: > 25 µM
NCI-H23 lung
  GI50: 8.64 µM
  TGI: > 25 µM
A498 renal
  GI50: 0.136 µM
  TGI: 1.97 µM
MDA-MB-231 breast
  GI50: 7.46 µM
  TGI: > 25 µM
COLO 205 colon
  GI50: 2.94 µM
  TGI: 7.62 µM
MCF7 breast
  GI50: 1.71 µM
  TGI: 9.73 µM
DU-145 prostate
  GI50: 4.76 µM
  TGI: > 22.9 µM
SF-539 CNS
  GI50: 1.52 µM
  TGI: 15.8 µM
HOP-62 NSCLC
  GI50: 7.07 µM
  TGI: 24.9 µM
RXF 393 renal
  GI50: 0.189 µM
  TGI: 3.18 µM
HT29 colon
  GI50: 5.15 µM
  TGI: > 19.7 µM
RPMI-8226 leukemia
  GI50: 24.8 µM
  TGI: > 25 µM
CCRF-CEM leukemia
  GI50: 2.33 µM
  TGI: > 25 µM
KM12 colon
  GI50: 2.61 µM
  TGI: 18.5 µM
U251 CNS
  GI50: 3.03 µM
  TGI: > 22 µM
HCT-15 colon
  GI50: > 25 µM
  TGI: > 25 µM
LOX IMVI melanoma
  GI50: 5.5 µM
  TGI: > 19.4 µM
OVCAR-3 ovarian
  GI50: 2.86 µM
  TGI: 9.22 µM
K-562 leukemia
  GI50: 9 µM
  TGI: > 25 µM
HCC-2998 colon
  GI50: 3.12 µM
  TGI: > 25 µM
NCI-H226 lung
  GI50: 8.27 µM
  TGI: > 24 µM
MDA-MB-435
  GI50: 11.6 µM
  TGI: > 25 µM
M14 melanoma
  GI50: 6.95 µM
  TGI: > 25 µM
SK-MEL-5 melanoma
  GI50: 10.5 µM
  TGI: > 25 µM
A549 NSCLC
  GI50: 6.96 µM
  TGI: > 25 µM
SW-620 colon
  GI50: 6.84 µM
  TGI: > 25 µM

## CC(=O)OC1Oc2cc(C)c(C)cc2-c2oc(=O)c(-c3ccccc3)cc21 (stereo not given)
EKVX NSCLC
  GI50: 0.685 µM
  TGI: > 100 µM
HOP-92 NSCLC
  GI50: 1.98 µM
  TGI: 61.8 µM
HCT-116 colon
  GI50: 0.455 µM
  TGI: 46.9 µM
SR leukemia
  GI50: 0.215 µM
  TGI: > 100 µM
SNB-19 CNS
  GI50: 0.496 µM
  TGI: 28.7 µM
ACHN renal
  GI50: 1.34 µM
  TGI: > 100 µM
SK-OV-3 ovarian
  GI50: 0.407 µM
  TGI: 37.3 µM
UACC-62 melanoma
  GI50: 0.289 µM
  TGI: > 32.6 µM
SNB-75 CNS
  GI50: 0.21 µM
  TGI: 0.902 µM
OVCAR-4 ovarian
  GI50: 3.92 µM
  TGI: > 100 µM
CAKI-1 renal
  GI50: 0.525 µM
  TGI: > 54.1 µM
SF-268 CNS
  GI50: 0.58 µM
  TGI: > 50.6 µM
NCI-H522 lung
  GI50: 0.177 µM
  TGI: 4.81 µM
MOLT-4 leukemia
  GI50: 0.355 µM
NCI/ADR-RES ovarian
  GI50: 0.213 µM
  TGI: 0.908 µM
UO-31 renal
  GI50: 0.499 µM
  TGI: 35.9 µM
BT-549 breast
  GI50: 7.34 µM
  TGI: > 31.9 µM
SN12C renal
  GI50: 0.487 µM
  TGI: > 100 µM
PC-3 prostate
  GI50: 0.435 µM
  TGI: > 100 µM
T-47D breast
  GI50: 0.352 µM
  TGI: > 68.1 µM
SK-MEL-28 melanoma
  GI50: 0.464 µM
  TGI: 55.6 µM
TK-10 renal
  GI50: 1.14 µM
  TGI: > 44.9 µM
IGROV1 ovarian
  GI50: 0.139 µM
  TGI: 0.432 µM
OVCAR-8 ovarian
  GI50: 0.545 µM
  TGI: > 84.5 µM
HS 578T breast
  GI50: 0.244 µM
  TGI: 1.42 µM
NCI-H460 lung
  GI50: 0.338 µM
  TGI: 14.2 µM
MALME-3M melanoma
  GI50: 0.407 µM
  TGI: > 34.7 µM
786-0 renal
  GI50: 0.429 µM
  TGI: 24.8 µM
OVCAR-5 ovarian
  GI50: 5.18 µM
  TGI: > 100 µM
SF-295 CNS
  GI50: 0.448 µM
  TGI: > 34.9 µM
HL-60(TB) leukemia
  GI50: 0.111 µM
  TGI: 0.467 µM
SK-MEL-2 melanoma
  GI50: 0.572 µM
  TGI: > 63.3 µM
UACC-257 melanoma
  GI50: 0.537 µM
  TGI: 39 µM
NCI-H23 lung
  GI50: 0.615 µM
  TGI: > 100 µM
A498 renal
  GI50: 0.271 µM
  TGI: 3.11 µM
MDA-MB-231 breast
  GI50: 0.584 µM
  TGI: 30.9 µM
COLO 205 colon
  GI50: 0.385 µM
  TGI: 3.64 µM
MCF7 breast
  GI50: 0.28 µM
  TGI: 27.5 µM
DU-145 prostate
  GI50: 0.297 µM
  TGI: 1.2 µM
SF-539 CNS
  GI50: 0.232 µM
  TGI: 0.762 µM
HOP-62 NSCLC
  GI50: 0.44 µM
  TGI: 21.9 µM
RXF 393 renal
  GI50: 0.343 µM
  TGI: 37.1 µM
HT29 colon
  GI50: 0.323 µM
  TGI: 4.39 µM
RPMI-8226 leukemia
  GI50: 0.287 µM
  TGI: 0.969 µM
CCRF-CEM leukemia
  GI50: 0.364 µM
  TGI: > 100 µM
KM12 colon
  GI50: 0.307 µM
  TGI: 11.8 µM
U251 CNS
  GI50: 0.44 µM
  TGI: 58.8 µM
HCT-15 colon
  GI50: 0.323 µM
  TGI: > 100 µM
LOX IMVI melanoma
  GI50: 1.47 µM
  TGI: > 100 µM
OVCAR-3 ovarian
  GI50: 0.114 µM
  TGI: 0.355 µM
K-562 leukemia
  GI50: 0.178 µM
  TGI: > 100 µM
HCC-2998 colon
  GI50: 0.971 µM
  TGI: > 30.8 µM
NCI-H226 lung
  GI50: 2.77 µM
MDA-MB-435
  GI50: 0.036 µM
  TGI: 0.199 µM
M14 melanoma
  GI50: 0.351 µM
  TGI: > 100 µM
SK-MEL-5 melanoma
  GI50: 0.231 µM
  TGI: 4.06 µM
A549 NSCLC
  GI50: 0.608 µM
  TGI: > 53.8 µM
SW-620 colon
  GI50: 0.242 µM
  TGI: > 100 µM

Reference: PubChem BioAssay (NCI)
